According to ChEMBL document CHEMBL1909046, “DrugMatrix in vitro pharmacology data”:

Legend:
[1] = biological target: T1, Alpha-1A adrenergic receptor (Rattus norvegicus, UniProt P43140); assay: DRUGMATRIX: Alpha-1A adrenergic receptor radioligand binding (ligand: prazosin); assay type: cell membranes, Wistar, Submaxillary gland, Membrane; conditions: Not Active = under 50% inhibition at 10 µM
T1 sequence (P43140 whole entry): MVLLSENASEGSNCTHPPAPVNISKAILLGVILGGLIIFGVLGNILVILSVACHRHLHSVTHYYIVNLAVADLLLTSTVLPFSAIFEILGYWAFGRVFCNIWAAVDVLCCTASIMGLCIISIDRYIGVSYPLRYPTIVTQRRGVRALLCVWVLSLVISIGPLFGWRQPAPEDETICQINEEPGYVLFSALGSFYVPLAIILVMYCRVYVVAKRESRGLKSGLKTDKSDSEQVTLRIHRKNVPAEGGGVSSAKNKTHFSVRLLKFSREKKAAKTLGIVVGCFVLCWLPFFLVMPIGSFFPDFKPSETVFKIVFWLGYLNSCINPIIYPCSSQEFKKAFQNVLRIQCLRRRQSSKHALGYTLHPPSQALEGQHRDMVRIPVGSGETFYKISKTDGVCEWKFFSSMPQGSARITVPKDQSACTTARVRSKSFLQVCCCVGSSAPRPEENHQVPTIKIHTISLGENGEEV

[2] = biological target: T2, Type-2 angiotensin II receptor (Homo sapiens, UniProt P50052); assay type: cell-based; conditions: cho-k1; further: in other assays of this panel Not Active means under 50% inhibition at 10 µM
T2 sequence (P50052 whole entry): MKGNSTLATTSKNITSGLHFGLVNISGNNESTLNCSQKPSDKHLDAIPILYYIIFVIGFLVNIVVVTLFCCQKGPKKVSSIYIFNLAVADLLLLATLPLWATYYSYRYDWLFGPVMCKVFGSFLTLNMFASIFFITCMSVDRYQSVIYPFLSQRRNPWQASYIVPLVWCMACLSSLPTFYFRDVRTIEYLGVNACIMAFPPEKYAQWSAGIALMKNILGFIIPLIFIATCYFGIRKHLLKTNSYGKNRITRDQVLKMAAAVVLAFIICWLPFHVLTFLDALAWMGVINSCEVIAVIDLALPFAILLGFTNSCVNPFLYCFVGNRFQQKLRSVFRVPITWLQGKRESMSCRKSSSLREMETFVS

[3] = biological target: T3, C-X-C chemokine receptor type 1 (Homo sapiens, UniProt P25024); further: in other assays of this panel Not Active means under 50% inhibition at 10 µM
T3 sequence (P25024 whole entry): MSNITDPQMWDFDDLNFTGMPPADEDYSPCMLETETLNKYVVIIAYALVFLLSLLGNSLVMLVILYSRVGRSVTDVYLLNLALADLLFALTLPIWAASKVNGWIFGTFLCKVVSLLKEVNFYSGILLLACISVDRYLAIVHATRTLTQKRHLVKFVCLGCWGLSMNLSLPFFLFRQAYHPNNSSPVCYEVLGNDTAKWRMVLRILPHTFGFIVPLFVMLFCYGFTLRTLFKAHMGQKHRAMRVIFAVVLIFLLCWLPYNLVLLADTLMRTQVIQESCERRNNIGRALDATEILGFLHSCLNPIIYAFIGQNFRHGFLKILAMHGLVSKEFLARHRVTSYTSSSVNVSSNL

[4] = biological target: T4, 3-hydroxy-3-methylglutaryl-coenzyme A reductase (Homo sapiens, UniProt P04035); set-up: species or system Escherichia coli;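 further: enzyme inhibition assay of HMG-CoA reductase using radiolabeled [14C]HMG-CoA as substrate; in other assays of this panel Not Active means under 50% inhibition at 10 µM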
T4 sequence (P04035 whole entry): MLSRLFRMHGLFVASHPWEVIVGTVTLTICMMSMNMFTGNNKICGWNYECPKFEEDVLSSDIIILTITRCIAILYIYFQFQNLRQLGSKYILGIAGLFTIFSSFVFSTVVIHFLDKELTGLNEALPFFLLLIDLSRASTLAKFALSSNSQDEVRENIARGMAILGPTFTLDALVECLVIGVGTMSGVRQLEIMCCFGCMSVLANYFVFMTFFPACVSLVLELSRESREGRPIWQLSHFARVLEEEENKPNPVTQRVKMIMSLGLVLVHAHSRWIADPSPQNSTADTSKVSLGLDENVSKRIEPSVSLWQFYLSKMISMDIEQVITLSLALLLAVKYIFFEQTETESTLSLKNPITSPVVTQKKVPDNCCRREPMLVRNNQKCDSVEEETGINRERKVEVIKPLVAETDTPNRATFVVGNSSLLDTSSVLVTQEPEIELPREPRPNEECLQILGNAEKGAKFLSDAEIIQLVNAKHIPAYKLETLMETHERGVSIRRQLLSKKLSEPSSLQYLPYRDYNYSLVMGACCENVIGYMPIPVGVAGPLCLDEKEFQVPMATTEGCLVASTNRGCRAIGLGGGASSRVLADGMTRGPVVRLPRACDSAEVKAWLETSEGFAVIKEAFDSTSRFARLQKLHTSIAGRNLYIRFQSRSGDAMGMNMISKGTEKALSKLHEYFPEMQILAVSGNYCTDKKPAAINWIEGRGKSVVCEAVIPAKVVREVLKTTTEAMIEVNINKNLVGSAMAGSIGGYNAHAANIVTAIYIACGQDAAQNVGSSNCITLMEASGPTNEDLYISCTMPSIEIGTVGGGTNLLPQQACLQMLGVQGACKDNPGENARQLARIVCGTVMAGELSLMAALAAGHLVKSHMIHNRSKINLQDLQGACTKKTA

[5] = DRUGMATRIX: Purinergic P2X radioligand binding (ligand: [3H] alpha, beta-Methylene-ATP); assay type: cell membranes, Oryctolagus cuniculus, New Zealand albino, Urinary bladder, Membrane; conditions: Not Active = under 50% inhibition at 10 µM

Nc1ccc(S(=O)(=O)Nc2ncccn2)cc1 [SULFADIAZINE]
Not Active: IC50 [1] | IC50 [2] | IC50 [3] | IC50 [4] | IC50 [5] | Ki [5]

COc1ncnc(NS(=O)(=O)c2ccc(N)cc2)c1OC [SULFADOXINE]
Not Active: IC50 [1] | IC50 [2] | IC50 [3] | IC50 [4] | IC50 [5] | Ki [5]

Nc1ccc(S(=O)(=O)Nc2nccs2)cc1 [SULFATHIAZOLE]
Not Active: IC50 [1] | IC50 [2] | IC50 [3] | IC50 [4] | IC50 [5] | Ki [5]

C[C@]12CC[C@H]3[C@@H](CCC4=CC(=O)CC[C@@]43C)[C@@H]1CC[C@@H]2O [TESTOSTERONE]
Not Active: IC50 [1] | IC50 [2] | IC50 [3] | IC50 [4] | IC50 [5] | Ki [5]

CC(C)(C)NC[C@H](O)COc1nsnc1N1CCOCC1 [TIMOLOL]
Not Active: IC50 [1] | IC50 [2] | IC50 [3] | IC50 [4] | IC50 [5] | Ki [5]

CCS(=O)(=O)CCn1c([N+](=O)[O-])cnc1C [TINIDAZOLE]
Not Active: IC50 [1] | IC50 [2] | IC50 [3] | IC50 [4] | IC50 [5] | Ki [5]

C[C@@H]1C[C@H]2[C@@H]3CCC4=CC(=O)C=C[C@]4(C)C3=CC[C@]2(C)[C@H]1C(=O)CN1CCN(c2cc(N3CCCC3)nc(N3CCCC3)n2)CC1 [TIRILAZAD]
Not Active: IC50 [1] | Ki [2] | IC50 [3] | IC50 [4] | IC50 [5] | Ki [5]

NC[C@H]1O[C@H](O[C@H]2[C@H](O)[C@@H](O[C@H]3O[C@H](CO)[C@@H](O)[C@H](N)[C@H]3O)[C@H](N)C[C@@H]2N)[C@H](N)C[C@@H]1O [TOBRAMYCIN]
Not Active: IC50 [1] | IC50 [2] | IC50 [3] | IC50 [4] | IC50 [5] | Ki [5]

O=C(O)C(Cl)(Cl)Cl [TRICHLOROACETIC ACID]
Not Active: IC50 [1] | IC50 [2] | IC50 [3] | IC50 [4] | IC50 [5] | Ki [5]

COc1ccc(CN2CCNCC2)c(OC)c1OC [TRIMETAZIDINE]
Not Active: IC50 [1] | IC50 [2] | IC50 [3] | IC50 [4] | IC50 [5] | Ki [5]

CC(=O)O[C@H]1C[C@@H]2CC[C@@H]3[C@H](CC[C@@]4(C)[C@H]3C[C@H]([N+]3(C)CCCCC3)[C@@H]4OC(C)=O)[C@@]2(C)C[C@@H]1N1CCCCC1.[Br-] [VECURONIUM BROMIDE]
Not Active: IC50 [1] | IC50 [2] | IC50 [3] | IC50 [4] | IC50 [5] | Ki [5]

COc1cc(C(=O)NS(=O)(=O)c2ccccc2C)ccc1Cc1cn(C)c2ccc(NC(=O)OC3CCCC3)cc12 [ZAFIRLUKAST]
Not Active: IC50 [1] | IC50 [2] | IC50 [3] | IC50 [4] | IC50 [5] | Ki [5]

Cc1cn([C@H]2C[C@H](N=[N+]=[N-])[C@@H](CO)O2)c(=O)[nH]c1=O [ZIDOVUDINE]
Not Active: IC50 [1] | IC50 [2] | IC50 [3] | IC50 [4] | IC50 [5] | Ki [5]

STANNOUS FLUORIDE
Not Active: IC50 [1] | Ki [1] | IC50 [2] | Ki [2] | IC50 [3] | Ki [3] | IC50 [4] | Ki [4] | IC50 [5] | Ki [5]

THIMEROSAL
Not Active: IC50 [1] | Ki [1] | IC50 [2] | Ki [2] | IC50 [3] | Ki [3] | IC50 [4] | Ki [4] | IC50 [5] | Ki [5]
